Experimental data as given in the supplement of paper PMC13207355.

Assays:
Conditions in all cases: exposure time: 72 h
[1] = tested on: E13 (patient-derived glioblastoma stem cells of classical subtype); test: surviving fraction (nuclei count normalised to DMSO); higher = more cells surviving (less toxic)
[2] = tested on: E21 (patient-derived glioblastoma stem cells of mesenchymal subtype); test: as above
[3] = tested on: E28 (patient-derived glioblastoma stem cells of classical subtype); test: as above
[4] = tested on: E31 (patient-derived glioblastoma stem cells of proneural subtype); test: as above
[5] = tested on: E34 (patient-derived glioblastoma stem cells of proneural subtype); test: as above
[6] = tested on: E57 (patient-derived glioblastoma stem cells of mesenchymal subtype); test: as above
[7] = tested on: FT3469 (normal neural stem cell line); test: as above
[8] = tested on: E13; test: phenotypic distance (Euclidean, principal components) from DMSO controls (arbitrary units); higher = stronger morphological change
[9] = tested on: E21; test: as above
[10] = tested on: E28; test: as above
[11] = tested on: E31; test: as above
[12] = tested on: E34; test: as above
[13] = tested on: E57; test: as above
[14] = tested on: FT3469; test: as above
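Wherever phenotypic distance (Euclidean, principal components) from DMSO controls is given: cell Painting imaging in 384-well plates, CellProfiler features reduced to at least 20 principal components, Euclidean distance versus same-plate DMSO vehicle wells (0.1% v/v), median over six images per well.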
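Wherever surviving fraction (nuclei count normalised to DMSO) is given: nuclei counted by high-content imaging of Hoechst-stained cells in laminin-coated 384-well plates, relative to 0.1% DMSO vehicle wells, with staurosporine as cell-death control.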

## CC(=O)CC(c1ccc([N+](=O)[O-])cc1)c1c(O)c2ccccc2oc1=O (stereo not drawn) [Acenocoumarol]
[1]; 4.1 nM
  surviving fraction: 0.91
[1]; 12.3 nM
  surviving fraction: 1.04
[1]; 37 nM
  surviving fraction: 1.05
[1]; 111.1 nM
  surviving fraction: 1.03
[1]; 333.3 nM
  surviving fraction: 0.873
[1]; 1000 nM
  surviving fraction: 0.931
[1]; 3000 nM
  surviving fraction: 0.767
[2]; 4.1 nM
  surviving fraction: 0.926
[2]; 12.3 nM
  surviving fraction: 1.09
[2]; 37 nM
  surviving fraction: 0.897
[2]; 111.1 nM
  surviving fraction: 0.931
[2]; 333.3 nM
  surviving fraction: 0.865
[2]; 1000 nM
  surviving fraction: 0.954
[2]; 3000 nM
  surviving fraction: 0.852
[3]; 4.1 nM
  surviving fraction: 0.905
[3]; 12.3 nM
  surviving fraction: 0.999
[3]; 37 nM
  surviving fraction: 0.918
[3]; 111.1 nM
  surviving fraction: 0.967
[3]; 333.3 nM
  surviving fraction: 1.06
[3]; 1000 nM
  surviving fraction: 0.92
[3]; 3000 nM
  surviving fraction: 0.901
[4]; 4.1 nM
  surviving fraction: 0.989
[4]; 12.3 nM
  surviving fraction: 0.923
[4]; 37 nM
  surviving fraction: 0.848
[4]; 111.1 nM
  surviving fraction: 0.934
[4]; 333.3 nM
  surviving fraction: 1.03
[4]; 1000 nM
  surviving fraction: 0.955
[4]; 3000 nM
  surviving fraction: 0.809
[5]; 4.1 nM
  surviving fraction: 0.771
[5]; 12.3 nM
  surviving fraction: 1.01
[5]; 37 nM
  surviving fraction: 1.04
[5]; 111.1 nM
  surviving fraction: 1.06
[5]; 333.3 nM
  surviving fraction: 0.935
[5]; 1000 nM
  surviving fraction: 0.918
[5]; 3000 nM
  surviving fraction: 0.892
[6]; 4.1 nM
  surviving fraction: 1.08
[6]; 12.3 nM
  surviving fraction: 1.09
[6]; 37 nM
  surviving fraction: 1.02
[6]; 111.1 nM
  surviving fraction: 1.07
[6]; 333.3 nM
  surviving fraction: 1.03
[6]; 1000 nM
  surviving fraction: 0.983
[6]; 3000 nM
  surviving fraction: 1.02
[7]; 4.1 nM
  surviving fraction: 1.01
[7]; 12.3 nM
  surviving fraction: 1.07
[7]; 37 nM
  surviving fraction: 0.881
[7]; 111.1 nM
  surviving fraction: 1.12
[7]; 333.3 nM
  surviving fraction: 0.823
[7]; 1000 nM
  surviving fraction: 0.849
[7]; 3000 nM
  surviving fraction: 0.771
[8]; 4.1 nM
  phenotypic distance: 0.426
[8]; 12.3 nM
  phenotypic distance: 0.665
[8]; 37 nM
  phenotypic distance: 2.8
[8]; 111.1 nM
  phenotypic distance: 0.663
[8]; 333.3 nM
  phenotypic distance: 0.594
[8]; 1000 nM
  phenotypic distance: 0.586
[8]; 3000 nM
  phenotypic distance: 0.934
[9]; 4.1 nM
  phenotypic distance: 1.01
[9]; 12.3 nM
  phenotypic distance: 0.655
[9]; 37 nM
  phenotypic distance: 0.963
[9]; 111.1 nM
  phenotypic distance: 0.772
[9]; 333.3 nM
  phenotypic distance: 0.946
[9]; 1000 nM
  phenotypic distance: 0.684
[9]; 3000 nM
  phenotypic distance: 1.11
[10]; 4.1 nM
  phenotypic distance: 1.02
[10]; 12.3 nM
  phenotypic distance: 0.39
[10]; 37 nM
  phenotypic distance: 0.547
[10]; 111.1 nM
  phenotypic distance: 0.548
[10]; 333.3 nM
  phenotypic distance: 0.562
[10]; 1000 nM
  phenotypic distance: 1.03
[10]; 3000 nM
  phenotypic distance: 0.857
[11]; 4.1 nM
  phenotypic distance: 0.829
[11]; 12.3 nM
  phenotypic distance: 0.483
[11]; 37 nM
  phenotypic distance: 1.07
[11]; 111.1 nM
  phenotypic distance: 0.701
[11]; 333.3 nM
  phenotypic distance: 0.894
[11]; 1000 nM
  phenotypic distance: 0.819
[11]; 3000 nM
  phenotypic distance: 1.06
[12]; 4.1 nM
  phenotypic distance: 1.2
[12]; 12.3 nM
  phenotypic distance: 0.513
[12]; 37 nM
  phenotypic distance: 1.59
[12]; 111.1 nM
  phenotypic distance: 0.677
[12]; 333.3 nM
  phenotypic distance: 0.562
[12]; 1000 nM
  phenotypic distance: 0.954
[12]; 3000 nM
  phenotypic distance: 0.563
[13]; 4.1 nM
  phenotypic distance: 0.94
[13]; 12.3 nM
  phenotypic distance: 1.02
[13]; 37 nM
  phenotypic distance: 1.11
[13]; 111.1 nM
  phenotypic distance: 1.36
[13]; 333.3 nM
  phenotypic distance: 0.492
[13]; 1000 nM
  phenotypic distance: 0.718
[13]; 3000 nM
  phenotypic distance: 0.744
[14]; 4.1 nM
  phenotypic distance: 1.4
[14]; 12.3 nM
  phenotypic distance: 0.712
[14]; 37 nM
  phenotypic distance: 1.02
[14]; 111.1 nM
  phenotypic distance: 0.751
[14]; 333.3 nM
  phenotypic distance: 0.862
[14]; 1000 nM
  phenotypic distance: 0.691
[14]; 3000 nM
  phenotypic distance: 0.764
